Source: patent publication US20100267697A1, “ION CHANNEL MODULATORS” (Wyeth, priority 2006, published 2010)

Each compound was assayed against T1, human Cav2.2 (composed of the subunits α1, β3 and α2δ) (Homo sapiens, UniProt Q00975) (assay: FLIPR assay (TSA201 cells stably transfected with human Cav2.2 and human Kir2.3, FLUO-4 Ca2+ signal, KCl depolarization)). Conditions: 70 mM KCl depolarization, average value.
T1 construct: expressed in transfected cells
Assay type: cell-based
Method in brief: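 TSA201 cells co-expressing Cav2.2 (α1, β3, α2δ) and Kir2.3 were loaded with FLUO-4 for 1 h at room temperature. Compound in HBSS with 1% DMSO was preincubated 15 min, then cells were depolarized with 70 mM final KCl (with CaCl2 and HEPES) and the Ca2+ fluorescence was read on FLIPR.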

T1 sequence (Q00975 whole entry): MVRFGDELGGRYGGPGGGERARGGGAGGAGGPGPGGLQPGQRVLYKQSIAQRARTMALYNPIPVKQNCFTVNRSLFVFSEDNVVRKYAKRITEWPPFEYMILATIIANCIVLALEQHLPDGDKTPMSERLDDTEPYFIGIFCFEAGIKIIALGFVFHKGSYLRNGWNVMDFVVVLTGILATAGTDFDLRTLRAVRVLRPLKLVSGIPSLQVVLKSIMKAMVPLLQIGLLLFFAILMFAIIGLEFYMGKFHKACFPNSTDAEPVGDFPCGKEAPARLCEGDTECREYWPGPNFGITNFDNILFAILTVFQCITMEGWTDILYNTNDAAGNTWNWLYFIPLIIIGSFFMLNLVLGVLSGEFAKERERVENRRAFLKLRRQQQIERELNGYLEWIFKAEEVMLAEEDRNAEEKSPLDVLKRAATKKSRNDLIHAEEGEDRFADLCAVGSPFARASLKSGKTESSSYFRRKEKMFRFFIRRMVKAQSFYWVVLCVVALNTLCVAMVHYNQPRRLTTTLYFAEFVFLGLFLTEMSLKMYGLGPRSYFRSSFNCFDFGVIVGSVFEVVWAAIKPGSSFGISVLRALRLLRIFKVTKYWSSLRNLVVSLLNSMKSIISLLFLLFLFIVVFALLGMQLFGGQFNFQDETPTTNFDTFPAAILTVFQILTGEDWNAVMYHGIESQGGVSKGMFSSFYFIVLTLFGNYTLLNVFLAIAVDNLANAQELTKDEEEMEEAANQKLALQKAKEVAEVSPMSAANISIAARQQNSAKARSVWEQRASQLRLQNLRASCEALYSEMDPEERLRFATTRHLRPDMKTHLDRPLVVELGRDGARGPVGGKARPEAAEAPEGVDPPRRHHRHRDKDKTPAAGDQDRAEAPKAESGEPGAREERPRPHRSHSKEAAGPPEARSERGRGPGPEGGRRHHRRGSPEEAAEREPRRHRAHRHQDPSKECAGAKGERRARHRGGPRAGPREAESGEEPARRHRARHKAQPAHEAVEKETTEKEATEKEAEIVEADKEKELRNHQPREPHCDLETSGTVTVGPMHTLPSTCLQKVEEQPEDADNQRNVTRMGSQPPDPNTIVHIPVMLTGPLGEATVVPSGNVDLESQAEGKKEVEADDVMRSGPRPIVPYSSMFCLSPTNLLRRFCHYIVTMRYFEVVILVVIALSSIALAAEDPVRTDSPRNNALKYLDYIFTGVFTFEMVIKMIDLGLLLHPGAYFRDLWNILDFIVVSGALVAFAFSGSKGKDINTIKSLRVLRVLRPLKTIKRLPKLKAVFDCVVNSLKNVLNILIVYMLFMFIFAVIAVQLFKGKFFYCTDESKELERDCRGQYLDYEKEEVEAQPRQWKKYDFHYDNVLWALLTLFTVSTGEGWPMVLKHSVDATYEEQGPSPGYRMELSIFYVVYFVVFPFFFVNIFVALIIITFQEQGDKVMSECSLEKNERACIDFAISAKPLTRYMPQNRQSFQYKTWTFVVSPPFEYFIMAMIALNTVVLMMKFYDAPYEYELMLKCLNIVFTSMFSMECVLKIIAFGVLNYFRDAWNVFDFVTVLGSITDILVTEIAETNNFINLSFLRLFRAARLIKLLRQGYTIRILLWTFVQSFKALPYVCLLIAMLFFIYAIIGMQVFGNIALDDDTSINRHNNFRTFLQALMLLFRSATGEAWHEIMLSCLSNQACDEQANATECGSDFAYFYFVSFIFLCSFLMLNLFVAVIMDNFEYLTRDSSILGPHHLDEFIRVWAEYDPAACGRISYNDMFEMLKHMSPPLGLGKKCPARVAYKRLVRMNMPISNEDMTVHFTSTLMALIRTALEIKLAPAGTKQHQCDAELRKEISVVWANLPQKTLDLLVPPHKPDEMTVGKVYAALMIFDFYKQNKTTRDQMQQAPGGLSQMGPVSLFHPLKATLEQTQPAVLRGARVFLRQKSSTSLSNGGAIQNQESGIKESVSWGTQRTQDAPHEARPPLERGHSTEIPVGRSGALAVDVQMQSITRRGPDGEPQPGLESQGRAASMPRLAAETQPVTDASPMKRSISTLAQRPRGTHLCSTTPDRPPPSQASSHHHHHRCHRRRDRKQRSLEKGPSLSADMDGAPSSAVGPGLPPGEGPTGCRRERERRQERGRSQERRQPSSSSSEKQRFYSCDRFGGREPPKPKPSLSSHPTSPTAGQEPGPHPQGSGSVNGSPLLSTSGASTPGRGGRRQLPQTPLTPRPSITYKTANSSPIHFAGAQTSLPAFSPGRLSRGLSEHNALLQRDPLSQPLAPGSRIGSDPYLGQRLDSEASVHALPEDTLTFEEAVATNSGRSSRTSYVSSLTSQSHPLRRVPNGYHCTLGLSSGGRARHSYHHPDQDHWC
T1 sequence (P54284 whole entry partner): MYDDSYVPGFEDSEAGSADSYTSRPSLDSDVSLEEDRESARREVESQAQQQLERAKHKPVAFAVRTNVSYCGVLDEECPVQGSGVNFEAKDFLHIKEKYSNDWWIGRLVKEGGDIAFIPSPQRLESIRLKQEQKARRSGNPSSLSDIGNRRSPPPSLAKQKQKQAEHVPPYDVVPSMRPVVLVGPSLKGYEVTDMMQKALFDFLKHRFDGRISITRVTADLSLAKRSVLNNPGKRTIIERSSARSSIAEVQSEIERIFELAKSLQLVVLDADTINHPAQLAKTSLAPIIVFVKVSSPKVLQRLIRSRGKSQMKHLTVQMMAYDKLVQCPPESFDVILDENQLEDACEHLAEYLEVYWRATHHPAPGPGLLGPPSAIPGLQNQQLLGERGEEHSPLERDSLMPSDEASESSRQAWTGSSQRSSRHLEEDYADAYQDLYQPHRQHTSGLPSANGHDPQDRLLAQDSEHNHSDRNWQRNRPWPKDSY
T1 sequence (P54289 25-946 partner limits assumed): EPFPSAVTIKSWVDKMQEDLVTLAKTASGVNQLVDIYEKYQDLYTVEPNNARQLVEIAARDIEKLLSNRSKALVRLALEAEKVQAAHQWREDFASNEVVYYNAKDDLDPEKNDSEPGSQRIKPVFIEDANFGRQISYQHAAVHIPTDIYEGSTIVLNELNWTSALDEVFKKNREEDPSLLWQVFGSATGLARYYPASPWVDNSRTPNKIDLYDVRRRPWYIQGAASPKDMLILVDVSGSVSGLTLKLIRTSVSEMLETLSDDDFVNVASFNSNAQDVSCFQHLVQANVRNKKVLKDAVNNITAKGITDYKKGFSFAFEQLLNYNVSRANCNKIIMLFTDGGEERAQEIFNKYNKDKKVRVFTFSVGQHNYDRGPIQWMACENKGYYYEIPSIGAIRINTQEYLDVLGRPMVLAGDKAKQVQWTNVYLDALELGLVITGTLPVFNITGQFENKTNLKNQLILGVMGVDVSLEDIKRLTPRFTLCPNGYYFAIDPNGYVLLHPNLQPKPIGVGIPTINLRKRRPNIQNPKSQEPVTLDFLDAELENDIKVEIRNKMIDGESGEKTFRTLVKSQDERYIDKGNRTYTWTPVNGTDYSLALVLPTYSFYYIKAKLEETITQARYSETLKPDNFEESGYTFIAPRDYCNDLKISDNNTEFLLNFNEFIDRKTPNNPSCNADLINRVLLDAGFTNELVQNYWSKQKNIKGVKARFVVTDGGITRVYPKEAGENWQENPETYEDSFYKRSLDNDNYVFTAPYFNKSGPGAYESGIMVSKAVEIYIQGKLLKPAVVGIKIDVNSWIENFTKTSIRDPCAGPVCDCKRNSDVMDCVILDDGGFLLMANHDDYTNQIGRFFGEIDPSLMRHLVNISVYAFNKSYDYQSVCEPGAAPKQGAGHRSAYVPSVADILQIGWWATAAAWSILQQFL
T1 sequence (P54289 947-1103 partner limits assumed): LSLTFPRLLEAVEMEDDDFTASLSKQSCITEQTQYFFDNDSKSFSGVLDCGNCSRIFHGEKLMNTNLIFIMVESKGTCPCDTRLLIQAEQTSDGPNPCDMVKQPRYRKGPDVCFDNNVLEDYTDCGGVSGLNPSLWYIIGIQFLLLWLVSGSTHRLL

Going from `CC(C)(C)C(=O)N(Cc1ccc(-c2cccc(C(=O)O)c2)nc1)c1ccc(F)cc1` [Compound 203, 3-(5-{[(2,2-dimethylpropanoyl)(4-fluorophenyl)amino]methyl}pyridin-2-yl)benzoic acid] to `CC(C)(C)C(=O)N(Cc1csc(-c2cccc(C(F)(F)F)c2)n1)c1ccc(F)cc1` [Compound 242, N-(4-fluorophenyl)-2,2-dimethyl-N-({2-[3-(trifluoromethyl)phenyl]-1,3-thiazol-4-yl]methyl)propanamide], the IC50 falls from 39 µM to 5.5 µM (7.1-fold).

Going from `CC(C)(C)C(=O)N(Cc1csc(N2CCOCC2)n1)C1CCCCC1` [Compound 204, N-cyclohexyl-2,2-dimethyl-N-[(2-morpholin-4-yl-1,3-thiazol-4-yl)methyl]propanamide] to `CCN(c1nc(CN(C(=O)C(C)(C)C)C2CCCCC2)cs1)C1CC1` [Compound 205, N-cyclohexyl-N-({2-[cyclopropyl(ethyl)amino]-1,3-thiazol-4-yl}methyl)-2,2-dimethylpropanamide], the IC50 falls from 11.4 µM to 2.1 µM (5.4-fold).

Compared with `CC(C)(C)C(=O)N(Cc1csc(C2CCCCC2)n1)c1ccc(F)cc1` [Compound 206, N-[(2-cyclohexyl-1,3-thiazol-4-yl)methyl]-N-(4-fluorophenyl)-2,2-dimethylpropanamide], `CC(C)(C)OC(=O)N1CCC(c2nc(CN(C(=O)C(C)(C)C)c3ccc(F)cc3)cs2)CC1` [Compound 209, tert-butyl 4-(4-{[(2,2-dimethylpropanoyl)(4-fluorophenyl)amino]methyl}--1,3-thiazol-2-yl)piperidine-1-carboxylate] is 2.3-fold lower in IC50: 6.1 µM for the first, 2.7 µM for the second. The second is the more potent here.

`O=C(C1CC1)N(Cc1csc(N2CCOCC2)n1)c1ccc(F)cc1` [Compound 207, N-(4-fluorophenyl)-N-[(2-morpholin-4-yl-1,3-thiazol-4-yl)methyl]cyclopropanecarboxamide] and `CC(=O)N(Cc1csc(N2CCOCC2)n1)c1ccc(F)cc1` [Compound 218, N-(4-fluorophenyl)-N-[(2-morpholin-4-yl-1,3-thiaozl-4-yl)methyl]acetamide] are within 1.5-fold of each other in IC50: 23.9 µM for the first, 23.4 µM for the second.

Compared with `CC(C)C(=O)N(Cc1csc(N2CCOCC2)n1)c1ccc(F)cc1` [Compound 208, N-(4-fluorophenyl)-2-methyl-N-[(2-morpholin-4-yl-1,3-thiazol-4-yl)methyl]propanamide], `CC(C)(C)C(=O)N(CCc1csc(N2CCOCC2)n1)c1ccc(F)cc1` [Compound 212, N-(4-flurophenyl)-2,2-dimethyl-N-[2-(2-morpholin-4-yl-1,3-thiazol-4-yl)ethyl]propanamide] is 3.8-fold lower in IC50: 22.2 µM for the first, 5.9 µM for the second. The second is the more potent here.

`CCN(c1nc(CN(C(C)=O)c2ccc(F)cc2)cs1)C1CC1` [Compound 210, N-({2-[cyclopropyl(ethyl)amino]-1,3-thiazol-4-yl}methyl)-N-(4-fluorophenyl)acetamide] and `CCN(CC)c1nc(CN(C(C)=O)c2ccc(F)cc2)cs1` [Compound 219, N-{[2-(diethylamino)-1,3-thiaozl-4-yl]methyl}-N-(4-fluorophenyl)acetamide] are within 1.5-fold of each other in IC50: 9.1 µM for the first, 8.7 µM for the second.

Compared with `CCN(c1nc(CN(C(=O)C2CCCCC2)c2ccc(F)cc2)cs1)C1CC1` [Compound 211, N-({2-[cyclopropyl(ethyl)amino]-1,3-thiazol-4-yl}methyl)-N-(4-fluorophenyl)cyclohexanecarboxamide], `CC(=O)N(Cc1csc(N(C)CCO)n1)c1ccc(F)cc1` [Compound 221, N-(4-fluorophenyl)-N-({2-[(2-hydroxyethyl)(methyl)amino]-1,3-thiazol-4-yl}methyl)acetamide] is 15-fold higher in IC50: 2.4 µM for the first, 37 µM for the second.

`CC(C)(C)C(=O)N(CCCc1csc(N2CCOCC2)n1)c1ccc(F)cc1` [Compound 213, N-(4-fluorophenyl)-2,2-dimethyl-N-[3-(2-morpholin-4-yl-1,3-thiazol-4-yl)propyl]propanamide] and `CC1CN(c2nc(CN(C(=O)C(C)(C)C)c3ccc(F)cc3)cs2)CC(C)O1` (centres unmarked) [Compound 239, 2,2-dimethylpropanamide N-{[2-(2,6-dimethylmorpholin-4-yl)-1,3-thiazol-4-yl]methyl}-N-(4-fluorophenyl)-] are within 1.5-fold of each other in IC50: 3.8 µM for the first, 3.4 µM for the second.

Compared with `CC(=O)N(Cc1csc(Br)n1)c1ccc(F)cc1` [Compound 214, N-[(2-bromo-1,3-thiazol-4-yl)methyl]-N-(4-fluorophenyl)acetamide], `CC(=O)N(Cc1csc(N2CCN(C)CC2)n1)c1ccc(F)cc1` [Compound 216, N-(4-fluorophenyl)-N-{[2-(4-methylpiperazin-1-yl)-1,3-thiazol-4-yl]methyl}acetamide] is 1.7-fold lower in IC50: 48.7 µM for the first, 29.4 µM for the second. The second is the more potent here.

Going from `CC(=O)N(Cc1ccc(Cl)nc1)c1ccc(F)cc1` [Compound 215, N-[(6-chloropyridin-3-yl)methyl]-N-(4-fluorophenyl)acetamide] to `CCN(CC)c1ccc(CN(C(C)=O)c2ccc(F)cc2)cn1` [Compound 228, N-{[6-(diethylamino)pyridin-3-yl]methyl}-N-(4-fluorophenyl)acetamide], the IC50 falls from 21.4 µM to 12.6 µM (1.7-fold). The second is the more potent here.

`CC(=O)N(Cc1csc(N2CCCN(C)CC2)n1)c1ccc(F)cc1` [Compound 217, N-(4-fluorophenyl)-N-{[2-(4-methyl-1,4-diazepan-1-yl)-1,3-thiazol-4-yl]methyl}acetamide] and `CC(=O)N(Cc1csc(N2CCC(O)CC2)n1)c1ccc(F)cc1` [Compound 222, N-(4-fluorophenyl)-N-{[2-(4-hydroxypiperidin-1-yl)-1,3-thiazol-4-yl]methyl}acetamide] are within 1.5-fold of each other in IC50: 29.5 µM for the first, 22.4 µM for the second.

`CC(=O)N(Cc1csc(N2CCC(C#N)CC2)n1)c1ccc(F)cc1` [Compound 220, N-{[2-(4-cyanopiperidin-1-yl)-1,3-thiazol-4-yl]methyl}-N-(4-fluorophenyl)acetamide] and `CC(=O)N(Cc1csc(N2CCC(CO)CC2)n1)c1ccc(F)cc1` [Compound 224, N-(4-fluorophenyl)-N-({2-[4-(hydroxymethyl)piperidin-1-yl]-1,3-thiazol-4-yl}methyl)acetamide] are within 1.5-fold of each other in IC50: 16.6 µM for the first, 12.3 µM for the second.

Compared with `CC(=O)N(Cc1csc(N2CCCC(O)C2)n1)c1ccc(F)cc1` (centres unmarked) [Compound 223, N-(4-fluorophenyl)-N-{[2-(3-hydroxypiperidin-1-yl)-1,3-thiazol-4-yl]methyl}acetamide], `CC(=O)N(Cc1csc(N2CCCC(CO)C2)n1)c1ccc(F)cc1` (centres unmarked) [Compound 225, N-(4-fluorophenyl)-N-({2-[3-(hydroxymethyl)piperidin-1-yl]-1,3-thiazol-4-yl}methyl)acetamide] is 1.9-fold lower in IC50: 31.4 µM for the first, 16.4 µM for the second.

`CC(=O)N(Cc1ccc(N2CCCN(C)CC2)nc1)c1ccc(F)cc1` [Compound 226, N-(4-fluorophenyl)-N-{[6-(4-methyl-1,4-diazepan-1-yl)pyridin-3-yl]methyl}acetamide] and `CC(=O)N(Cc1ccc(N2CCOCC2)nc1)c1ccc(F)cc1` [Compound 227, N-(4-fluorophenyl)-N-[(6-morpholin-4-ylpyridin-3-yl)methyl]acetamide] are within 1.5-fold of each other in IC50: 26.2 µM for the first, 35 µM for the second.

Compared with `CC(=O)N(Cc1ccc(N2CCC(C#N)CC2)nc1)c1ccc(F)cc1` [Compound 229, N-{[6-(4-cyanopiperidin-1-yl)pyridin-3-yl]methyl}-N-(4-fluorophenyl)acetamide], `CC(=O)N(Cc1ccc(N2CCC(O)CC2)nc1)c1ccc(F)cc1` [Compound 231, N-(4-fluorophenyl)-N-{[6-(4-hydroxypiperidin-1-yl)pyridin-3-yl]methyl}acetamide] is 2.5-fold higher in IC50: 19.7 µM for the first, 49.7 µM for the second.

First: CC(=O)N(Cc1ccc(N(C)CCO)nc1)c1ccc(F)cc1 [Compound 230, N-(4-fluorophenyl)-N-({6-[(2-hydroxyethyl)(methyl)amino]pyridin-3-yl}methyl)acetamide]
Second: CC(=O)N(Cc1ccc(N2CCC(CO)CC2)nc1)c1ccc(F)cc1 [Compound 233, N-(4-fluorophenyl)-N-({6-[4-(hydroxymethyl)piperidin-1-yl]pyridin-3-yl}methyl)acetamide]
The IC50 of the first is 2-fold higher: 45.3 µM for the first, 22.2 µM for the second. The second is the more potent here.

Going from `CC(=O)N(Cc1ccc(N2CCCC(O)C2)nc1)c1ccc(F)cc1` (centres unmarked) [Compound 232, N-(4-fluorophenyl)-N-{[6-(3-hydroxypiperidin-1-yl)pyridin-3-yl]methyl}acetamide] to `CC(=O)N(Cc1ccc(N2CCCC(CO)C2)nc1)c1ccc(F)cc1` (centres unmarked) [Compound 234, N-(4-fluorophenyl)-N-({6-[3-(hydroxymethyl)piperidin-1-yl]pyridin-3-yl}methyl)acetamide], the IC50 falls from 30.2 µM to 13.9 µM (2.2-fold). The second is the more potent here.

First: CC(=O)N(Cc1ccc(N2CCC(CO)CC2)nc1)C1CCCC1 [Compound 235, N-cyclopentyl-N-({6-[4-(hydroxymethyl)piperidin-1-yl]pyridin-3-yl}methyl)acetamide]
Second: CC(=O)N(Cc1ccc(N2CCC(CO)CC2)nc1)C1CCCCC1 [Compound 237, N-cyclohexyl-N-({6-[4-(hydroxymethyl)piperidin-1-yl]pyridin-3-yl}methyl)acetamide]
The IC50 of the first is 1.5-fold higher: 36.4 µM for the first, 23.9 µM for the second. The second is the more potent here.

First: CC(=O)N(Cc1ccc(N2CCN(C)CC2)nc1)C1CCCCC1 [Compound 236, N-cyclohexyl-N-{[6-(4-methylpiperzin-1-yl)pyridin-3-yl]methyl}acetamide]
Second: CCN(c1nc(CN(C(C)=O)C2CCC(C(C)(C)C)CC2)cs1)C1CC1 (centres unmarked) [Compound 238, N-(4-tert-butylcyclohexyl)-N-({2-[cyclopropyl(ethyl)amino]-1,3-thiazol-4-yl}methyl)acetamide]
The IC50 of the first is 8.9-fold higher: 29.4 µM for the first, 3.3 µM for the second. The second is the more potent here.

Going from `CC(C)(C)C(=O)N(Cc1csc(-c2cnc3ccccc3c2)n1)c1ccc(F)cc1` [Compound 240, N-(4-fluorophenyl)-2,2-dimethyl-N-[(2-quinolin-3-yl-1,3-thiazol-4-yl)methyl]propanamide] to `CC(C)(C)C(=O)N(Cc1csc(-c2ccccc2C(F)(F)F)n1)c1ccc(F)cc1` [Compound 243, N-(4-fluorophenyl)-2,2-dimethyl-N-({2-[2-(trifluoromethyl)phenyl]-1,3-thiazol-4-yl}methyl)propanamide], the IC50 falls from 10.1 µM to 4.1 µM (2.5-fold).

`CC(C)(C)C(=O)N(Cc1csc(-c2ccc(C(F)(F)F)cc2)n1)c1ccc(F)cc1` [Compound 241, N-(4-fluorophenyl)-2,2-dimethyl-N-({2-[4-(trifluoromethyl)phenyl]-1,3-thiazol-4-yl}methyl)propanamide] was tested, and the IC50 was 6.7 µM.
